Measured values taken from article PMC5952258, “Identification of a Mycothiol-Dependent Nitroreductase from Mycobacterium tuberculosis” (ACS Infectious Diseases, 2018).

Biological target: Rv2466c (rRv2466c; Mrx-2) (Mycobacterium tuberculosis, UniProt O53193)
Sequence (O53193 whole entry): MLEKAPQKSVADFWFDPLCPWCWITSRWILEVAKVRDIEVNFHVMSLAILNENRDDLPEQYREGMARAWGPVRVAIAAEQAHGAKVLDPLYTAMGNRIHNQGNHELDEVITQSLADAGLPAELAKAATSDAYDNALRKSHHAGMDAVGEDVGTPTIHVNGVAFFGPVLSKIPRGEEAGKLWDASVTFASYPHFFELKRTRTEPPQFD

**Q.** Which melting temperature shift does the source give for `CC(=O)N[C@@H](CSSC[C@H](NC(C)=O)C(=O)N[C@H]1[C@@H](O[C@@H]2[C@H](O)[C@H](O)[C@@H](O)[C@H](O)[C@H]2O)O[C@H](CO)[C@@H](O)[C@@H]1O)C(=O)N[C@H]1[C@@H](O[C@@H]2[C@H](O)[C@H](O)[C@@H](O)[C@H](O)[C@H]2O)O[C@H](CO)[C@@H](O)[C@@H]1O` [mycothione] here?
**A.** MSSM also caused a significant shift in the melting temperature
